Experimental data as given in patent US7910751B2, “Heterocyclidene acetamide derivative” (Mochida Pharmaceutical Co., Ltd., priority 2005, dated 2011).

Biological target: T1, human TRPV1 (Homo sapiens, UniProt Q8NER1)
T1 construct: expressed in transfected cells; host or cells: CHO-K1
Test: Measurement of capsaicin-induced Ca influx in human TRPV1 transformed CHO cell line using FDSS-6000
Type: cell-based
Details: concentration at which the capsaicin concentration-reaction curve is shifted two times to the right, human TRPV1 transformed CHO cells
Source text: [Measurement of Capsaicin-Induced Ca Influx in Human TRPV1 Transformed CHO Cell Line]
(1) Establishment of Human TRPV1 Transformed CHO Cell Line
Human vanilloid receptor 1 (hTRPV1) cDNA was cloned from a human brain. The cloned hTRPV1 cDNA was incorporated in a pCAGGS vector. The gene of the vector was introduced to a CHO-K1 cell line, thus performing transformation. Clones obtained by limiting dilution were stimulated with capsaicin. Clones with a high responsiveness were selected using an increase in the Ca concentration as an indicator. The selected clones were used for the following experiment.
(2) Measurement of Ca Influx Using FDSS-6000
The human TRPV1 transformed CHO cells were seeded in a 96-well plate (with black walls and transparent bottoms, manufactured by Greiner) at a density of 40,000 cells per well. The cells were cultured at 37° C. in 5% CO2 for one night. A loading solution of FLIPR Calcium 3 assay kit (manufactured by Molecular Devices Corporation) containing 2.5 mmol/L of probenecid was then added to each of the wells in the same amount as the culture medium, and the cells were cultured at 37° C. for 60 minutes. After the cells were stimulated with capsaicin (1 nmol/L to 1 μmol/L), the change in the Ca concentration in the cells was measured using FDSS-6000 (λex: 480 nm, λem: 540 nm, manufactured by Hamamatsu Photonics K.K.) for three minutes. The integrated values of the increase rate of the Ca concentration in the cells were calculated for a group treated with the compounds of the present invention and a group treated with a medium, thus allowing capsaicin concentration-reaction curves to be obtained. A concentration (A2 value) of each of the compounds of the present invention, at which the capsaicin concentration-reaction curve obtained when the cells were treated with the medium was shifted two times to the right side, was calculated. The inhibiting effects of the test compounds were compared using this value as an indicator.
In the case where a compound of the present invention is an agonist, when the cells are treated with the compound of the present invention prior to the capsaicin stimulation, the Ca influx is observed. In Table 1, compounds of the present invention having an A2 value of less than 100 nM are represented by A, and compounds having an A2 value of 100 nM or more are represented by B. When the A2 values of the compounds of the present invention were measured by the above-described method, the compounds have an intensity of 1 μM or less.

T1 sequence (Q8NER1 whole entry): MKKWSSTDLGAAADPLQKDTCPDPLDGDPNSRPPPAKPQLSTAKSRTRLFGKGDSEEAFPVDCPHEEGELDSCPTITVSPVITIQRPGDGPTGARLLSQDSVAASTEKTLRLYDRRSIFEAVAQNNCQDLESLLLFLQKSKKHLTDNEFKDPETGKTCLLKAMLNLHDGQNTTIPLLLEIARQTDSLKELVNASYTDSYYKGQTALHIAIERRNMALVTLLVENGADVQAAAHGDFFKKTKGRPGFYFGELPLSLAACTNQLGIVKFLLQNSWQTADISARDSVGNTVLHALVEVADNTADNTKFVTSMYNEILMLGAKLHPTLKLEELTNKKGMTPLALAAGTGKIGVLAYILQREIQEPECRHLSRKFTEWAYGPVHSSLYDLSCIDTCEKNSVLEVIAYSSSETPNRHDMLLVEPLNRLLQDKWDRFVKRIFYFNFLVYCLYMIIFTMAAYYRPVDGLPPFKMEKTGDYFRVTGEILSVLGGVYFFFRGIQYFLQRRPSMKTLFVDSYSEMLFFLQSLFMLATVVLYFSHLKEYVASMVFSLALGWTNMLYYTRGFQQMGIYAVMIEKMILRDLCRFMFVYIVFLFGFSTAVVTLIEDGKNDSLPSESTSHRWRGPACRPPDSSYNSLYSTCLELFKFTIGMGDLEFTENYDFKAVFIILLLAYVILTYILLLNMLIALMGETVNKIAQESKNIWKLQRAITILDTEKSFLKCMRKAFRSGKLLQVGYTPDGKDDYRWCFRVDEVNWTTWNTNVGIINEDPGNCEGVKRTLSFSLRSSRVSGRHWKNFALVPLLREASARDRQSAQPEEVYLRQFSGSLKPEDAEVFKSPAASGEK

| SMILES | A2 VALUE |
| --- | --- |
| CCCCC(=O)N1CC/C(=C\C(=O)Nc2ccc3cccnc3c2)c2ccc(C(F)(F)F)cc21 [Example 50, (E)-2-(7-trifluoromethyl-2,3-dihydro-1-pentanoylquinolin-4(1H)-ylidene)-N-(quinolin-7-yl)acetamide] | A (compounds of the present invention having an A2 value of less than 100 nM are represented by A) |
| CCC(CC)C(=O)N1CC/C(=C\C(=O)Nc2ccc3cccnc3c2)c2ccc(C(F)(F)F)cc21 [Example 51, (E)-2-(1-(2-ethylbutanoyl)-7-trifluoromethyl-2,3-dihydroquinolin-4(1H)-ylidene)-N-(quinolin-7-yl)acetamide] | A (compounds of the present invention having an A2 value of less than 100 nM are represented by A) |
| O=C(/C=C1\CCN(C(=O)C2CCCCC2)c2cc(C(F)(F)F)ccc21)Nc1ccc2cccnc2c1 [Example 52, (E)-2-(7-trifluoromethyl-2,3-dihydro-1-cyclohexanecarbonylquinolin-4(1H)-ylidene)-N-(quinolin-7-yl)acetamide] | A (compounds of the present invention having an A2 value of less than 100 nM are represented by A) |
| O=C(/C=C1\CCN(C(=O)C2CCOCC2)c2cc(C(F)(F)F)ccc21)Nc1ccc2cccnc2c1 [Example 53, (E)-2-(7-trifluoromethyl-2,3-dihydro-1-(4-pyranoyl)quinolin-4(1H)-ylidene)-N-(quinolin-7-yl)acetamide] | A (compounds of the present invention having an A2 value of less than 100 nM are represented by A) |
| O=C(/C=C1\CCN(C(=O)c2ccccc2)c2cc(C(F)(F)F)ccc21)Nc1ccc2cccnc2c1 [Example 54, (E)-2-(7-trifluoromethyl-2,3-dihydro-1-benzoylquinolin-4(1H)-ylidene)-N-(quinolin-7-yl)acetamide] | A (compounds of the present invention having an A2 value of less than 100 nM are represented by A) |
| O=C(/C=C1\CCN(C(=O)c2cccnc2)c2cc(C(F)(F)F)ccc21)Nc1ccc2cccnc2c1 [Example 55, (E)-2-(7-trifluoromethyl-2,3-dihydro-1-nicotinoylquinolin-4(1H)-ylidene)-N-(quinolin-7-yl)acetamide] | A (compounds of the present invention having an A2 value of less than 100 nM are represented by A) |
| O=C(/C=C1\CCN(c2ccc(Cl)cc2)c2cc(C(F)(F)F)ccc21)NC1CCc2cccnc2C1 (stereo not shown) [Example 56, (E)-2-(1-(4-chlorophenyl)-7-trifluoromethyl-2,3-dihydro-4(1H)-ylidene)-N-(5,6,7,8-tetrahydroquinolin-7-yl)acetamide] | A (compounds of the present invention having an A2 value of less than 100 nM are represented by A) |
| O=C(/C=C1\CCN(c2ccc(Cl)cc2)c2cc(C(F)(F)F)ccc21)Nc1ccc2cccnc2c1 [Example 57, (E)-2-(1-(4-chlorophenyl)-7-trifluoromethyl-2,3-dihydro-4(1H)-ylidene)-N-(quinolin-7-yl)acetamide] | A (compounds of the present invention having an A2 value of less than 100 nM are represented by A) |
| O=C(/C=C1\CCN(c2cccnc2)c2cc(C(F)(F)F)ccc21)Nc1ccc2cccnc2c1 [Example 58, (E)-2-(7-trifluoromethyl-2,3-dihydro-1-(pyridin-3-yl)quinolin-4(1H)-ylidene)-N-(quinolin-7-yl)acetamide] | A (compounds of the present invention having an A2 value of less than 100 nM are represented by A) |
| O=C(/C=C1\CCCOc2cc(C(F)(F)F)ccc21)Nc1ccc2sc(CO)nc2c1 [Example 59, (E)-2-(8-trifluoromethyl-3,4-dihydrobenzo[b]oxepin-5(2H)-ylidene)-N-(2-hydroxymethyl-1,3-benzothiazolo-5-yl)acetamide] | A (compounds of the present invention having an A2 value of less than 100 nM are represented by A) |
| O=C(/C=C1\CCCOc2cc(C(F)(F)F)ccc21)Nc1ccccc1CCO [Example 60, (E)-2-(8-trifluoromethyl-3,4-dihydrobenzo[b]oxepin-5(2H)-ylidene)-N-((2-hydroxyethyl)phenyl-1-yl)acetamide] | A (compounds of the present invention having an A2 value of less than 100 nM are represented by A) |
| O=C1CCc2cccc(NC(=O)/C=C3\CCCOc4cc(C(F)(F)F)ccc43)c2C1 [Example 61, (E)-2-(8-trifluoromethyl-3,4-dihydrobenzo[b]oxepin-5(2H)-ylidene)-N-(7-oxo-5,6,7,8-tetrahydronaphthalen-1-yl)acetamide] | A (compounds of the present invention having an A2 value of less than 100 nM are represented by A) |
| O=C(/C=C1\CCCOc2cc(C(F)(F)F)ccc21)Nc1cccc2c1CC(O)CC2 (stereo not shown) [Example 62, (E)-2-(8-trifluoromethyl-3,4-dihydrobenzo[b]oxepin-5-(2H)-ylidene)-N-(7-hydroxy-5,6,7,8-tetrahydronaphthalen-1-yl)acetamide] | A (compounds of the present invention having an A2 value of less than 100 nM are represented by A) |
| O=C(/C=C1\CCCOc2cc(C(F)(F)F)ccc21)Nc1cccc2c1CC(O)CC2 (stereo not shown) [Example 63, (E)-2-(8-trifluoromethyl-3,4-dihydrobenzo[b]oxepin-5-(2H)-ylidene)-N-(7-hydroxy-5,6,7,8-tetrahydronaphthalen-1-yl)acetamide] | A (compounds of the present invention having an A2 value of less than 100 nM are represented by A) |
| O=C(/C=C1\CCCOc2cc(C(F)(F)F)ccc21)Nc1cccc2c1CC(O)CC2 (stereo not shown) [Example 64, (E)-2-(8-trifluoromethyl-3,4-dihydrobenzo[b]oxepin-5-(2H)-ylidene)-N-(7-hydroxy-5,6,7,8-tetrahydronaphthalen-1-yl)acetamide] | A (compounds of the present invention having an A2 value of less than 100 nM are represented by A) |
| O=C(/C=C1\CCCOc2cc(C(F)(F)F)ccc21)Nc1cccc2c1CC(O)C(O)C2 (stereo not drawn) [Example 65, (E)-2-(8-trifluoromethyl-3,4-dihydrobenzo[b]oxepin-5-(2H)-ylidene)-N-(trans-6,7-dihydroxy-5,6,7,8-tetrahydronaphthalen-1-yl)acetamide] | A (compounds of the present invention having an A2 value of less than 100 nM are represented by A) |
| O=C(/C=C1\CCCOc2cc(C(F)(F)F)ccc21)Nc1cccc2c1CC(O)C(O)C2 (stereo not drawn) [Example 66, (E)-2-(8-trifluoromethyl-3,4-dihydrobenzo[b]oxepin-5-(2H)-ylidene)-N-(cis-6,7-dihydroxy-5,6,7,8-tetrahydronaphthalen-1-yl)acetamide] | A (compounds of the present invention having an A2 value of less than 100 nM are represented by A) |
| O=C(/C=C1\CCCOc2cc(C(F)(F)F)ccc21)Nc1cccc2c1CC(O)C(=O)N2 (stereo not shown) [Example 67, (E)-2-(8-trifluoromethyl-3,4-dihydrobenzo[b]oxepin-5(2H)-ylidene)-N-(3-hydroxy-2-oxo-1,2,3,4-tetrahydroquinolin-5-yl)acetamide] | A (compounds of the present invention having an A2 value of less than 100 nM are represented by A) |
| O=C(/C=C1\CCCOc2cc(C(F)(F)F)ccc21)Nc1cccc2c1CC(O)CN2 (stereo not shown) [Example 68, (E)-2-(8-trifluoromethyl-3,4-dihydrobenzo[b]oxepin-5(2H)-ylidene)-N-(3-hydroxy-1,2,3,4-tetrahydroquinolin-5-yl)acetamide] | A (compounds of the present invention having an A2 value of less than 100 nM are represented by A) |
| CN1CC(O)Cc2c(NC(=O)/C=C3\CCCOc4cc(C(F)(F)F)ccc43)cccc21 (stereo not shown) [Example 69, (E)-2-(8-trifluoromethyl-3,4-dihydrobenzo[b]oxepin-5-(2H)-ylidene)-N-(1-methyl-3-hydroxy-1,2,3,4-tetrahydroquinolin-5-yl)acetamide] | A (compounds of the present invention having an A2 value of less than 100 nM are represented by A) |
| O=C(/C=C1\CCOc2cc(C(F)(F)F)ccc21)Nc1cccc2c1CC(O)CC2 (stereo not shown) [Example 70, (E)-2-(7-trifluoromethyl-chroman-4-ylidene)-N-(7-hydroxy-5,6,7,8-tetrahydronaphthalen-1-yl)acetamide] | A (compounds of the present invention having an A2 value of less than 100 nM are represented by A) |
| O=C(/C=C1\CCOc2cc(C(F)(F)F)ccc21)Nc1cccc2c1CC(O)CC2 (stereo not shown) [Example 71, (E)-2-(7-trifluoromethyl-chroman-4-ylidene)-N-(7-hydroxy-5,6,7,8-tetrahydronaphthalen-1-yl)acetamide] | A (compounds of the present invention having an A2 value of less than 100 nM are represented by A) |
